One series concerns the target T1, FLT3 wild type (Homo sapiens, UniProt P36888).
T1 construct: purchased Reaction Biology Corp. (Kinase HotSpot service)
T1 sequence (P36888 27-993): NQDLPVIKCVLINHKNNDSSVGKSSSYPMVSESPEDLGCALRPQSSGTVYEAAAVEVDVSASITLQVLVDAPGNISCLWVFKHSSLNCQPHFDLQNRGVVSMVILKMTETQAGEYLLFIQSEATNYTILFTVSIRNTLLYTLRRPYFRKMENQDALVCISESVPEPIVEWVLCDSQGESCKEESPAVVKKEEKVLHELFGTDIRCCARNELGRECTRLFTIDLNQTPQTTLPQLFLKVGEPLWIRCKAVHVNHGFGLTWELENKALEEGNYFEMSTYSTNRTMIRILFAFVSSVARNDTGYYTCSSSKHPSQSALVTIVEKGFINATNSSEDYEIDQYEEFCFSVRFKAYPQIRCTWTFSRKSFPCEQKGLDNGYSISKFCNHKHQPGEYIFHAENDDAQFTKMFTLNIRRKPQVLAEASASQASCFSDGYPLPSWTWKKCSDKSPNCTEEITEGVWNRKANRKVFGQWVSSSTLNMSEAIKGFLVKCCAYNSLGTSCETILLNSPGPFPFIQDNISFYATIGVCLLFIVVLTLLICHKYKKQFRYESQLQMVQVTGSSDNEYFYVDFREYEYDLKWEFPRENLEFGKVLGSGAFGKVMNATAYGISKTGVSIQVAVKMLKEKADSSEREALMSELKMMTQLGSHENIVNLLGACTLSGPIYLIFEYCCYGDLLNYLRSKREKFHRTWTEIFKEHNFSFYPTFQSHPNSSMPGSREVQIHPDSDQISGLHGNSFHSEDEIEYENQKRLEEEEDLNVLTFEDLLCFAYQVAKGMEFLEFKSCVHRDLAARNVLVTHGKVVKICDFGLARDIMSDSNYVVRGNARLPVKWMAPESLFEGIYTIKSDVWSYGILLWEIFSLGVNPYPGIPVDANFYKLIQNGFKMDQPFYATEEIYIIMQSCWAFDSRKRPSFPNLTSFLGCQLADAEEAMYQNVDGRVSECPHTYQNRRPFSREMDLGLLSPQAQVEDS
As to the kind of experiment: Reaction Biology Kinase HotSpot radiometric kinase assay. It is filed as biochemical. As to conditions: ATP 10 µM. The source says:
(§1) (specific activity approx. 500 cpm/pmol, concentration as required).

For the next series, the target named is T2, FLT3 (D835Y) (Homo sapiens, UniProt P36888, D835Y).
T2 construct: purchased Reaction Biology Corp. (Kinase HotSpot service)
T2 sequence (P36888 27-993 D835Y): T1 sequence (P36888 27-993) with D809Y
The series is described as above. The class given is biochemical.
Text: as §1

Each structure is given as a SMILES string. Numbering of substitutions follows the chain as printed. Where two headings read alike, the source gives them in different places.

Results on eight compounds are retold here after article PMC8788362, “Rational design and synthesis of 2-(1H-indazol-6-yl)-1H-benzo[d]imidazole derivatives as inhibitors targeting FMS-like tyrosine kinase 3 (FLT3) and its mutants” (Journal of Enzyme Inhibition and Medicinal Chemistry, 2022).

By IC50 is commonly meant the point on the concentration scale where inhibition reaches its midpoint. One may read the melting point as the temperature, or range, at which the solid turns liquid.

As for `CCN(CC)C1CCN(c2cc(C(=O)Nc3ccc4[nH]c(-c5ccc6cn[nH]c6c5)nc4c3)cc(C(F)(F)F)c2)C1` (stereo not shown) [8o, N-(2-(1H-Indazol-6-yl)-1H-benzo[d]imidazol-5-yl)-3–(3-(diethylamino)pyrrolidin-1-yl)-5-(trifluoromethyl)benzamide], the melting point was in the range of 221 to 223 °C. The IC50 at FLT3 wild type (read-out: FLT3 IC50) stood at 841 nM. The 50% inhibitory concentration (IC50) at FLT3 (D835Y) worked out at 120 nM.
In the case of `CN1CCC(Oc2ccc(C(=O)Nc3ccc4[nH]c(-c5ccc6cn[nH]c6c5)nc4c3)cc2C(F)(F)F)CC1` [8x, N-(2-(1H-Indazol-6-yl)-1H-benzo[d]imidazol-5-yl)-4-((1-methylpiperidin-4-yl)oxy)-3-(trifluoromethyl)benzamide], the melting point fell in the range of 293 to 295 °C. Further, the IC50 on FLT3 wild type (read-out: FLT3 IC50) came to 743 nM. At FLT3 (D835Y), this compound returned an IC50 of 145 nM.
`O=C(Nc1ccc2[nH]c(-c3ccc4cn[nH]c4c3)nc2c1)c1cc(N2CCN(C3CC3)CC2)cc(C(F)(F)F)c1` [8p, N-(2-(1H-Indazol-6-yl)-1H-benzo[d]imidazol-5-yl)-3–(4-cyclopropylpiperazin-1-yl)-5-(trifluoromethyl)benzamide] came in with a melting point of 154 to 156 °C. Also, on FLT3 wild type (read-out: FLT3 IC50), the IC50 turned out to be 409 nM. The same compound returned an IC50 on FLT3 (D835Y) of 131 nM.
In the case of `CCN1CCN(c2cc(C(=O)Nc3ccc4[nH]c(-c5ccc6cn[nH]c6c5)nc4c3)cc(C(F)(F)F)c2)CC1(C)C` [8z, N-(2-(1H-Indazol-6-yl)-1H-benzo[d]imidazol-5-yl)-3–(4-ethyl-3,3-dimethylpiperazin-1-yl)-5-(trifluoromethyl)benzamide], the melting point lay within 153 to 154 °C. In addition, on FLT3 wild type (read-out: FLT3 IC50), the IC50 is 66 nM. The IC50 at FLT3 wild type (read-out: FLT3 wild type IC50) was 65.9 nM. The compound further showed an IC50 against FLT3 (D835Y) of 46 nM.
The compound `O=C(Nc1ccc2[nH]c(-c3ccc4cn[nH]c4c3)nc2c1)c1ccc(Cl)c(C(F)(F)F)c1` [8i, N-(2-(1H-Indazol-6-yl)-1H-benzo[d]imidazol-5-yl)-4-chloro-3-(trifluoromethyl)benzamide] gave a melting point of 215 to 217 °C. Also, the IC50 on FLT3 wild type (read-out: FLT3 IC50) came to 676 nM. The same compound showed a concentration for half-maximal inhibition (IC50) against FLT3 (D835Y) of 84 nM.
With `CCN1CCN(Cc2ccc(C(=O)Nc3ccc4[nH]c(-c5ccc6cn[nH]c6c5)nc4c3)cc2C(F)(F)F)CC1` [8w, N-(2-(1H-Indazol-6-yl)-1H-benzo[d]imidazol-5-yl)-4-((4-ethylpiperazin-1-yl)methyl)-3-(trifluoromethyl)benzamide], the melting point was 164 to 166 °C. Further, on FLT3 wild type (read-out: FLT3 IC50), the half-inhibitory concentration (IC50) stood at 290 nM. This compound also gave an IC50 on FLT3 (D835Y) of 13 nM.
The matching figures for `CN1CCC(Oc2cc(C(=O)Nc3ccc4[nH]c(-c5ccc6cn[nH]c6c5)nc4c3)cc(C(F)(F)F)c2)CC1` [8u, N-(2-(1H-Indazol-6-yl)-1H-benzo[d]imidazol-5-yl)-3-((1-methylpiperidin-4-yl)oxy)-5-(trifluoromethyl)benzamide]: 293 to 295 °C, 289 nM and 55 nM.
On to `O=C(Nc1ccc2[nH]c(-c3ccc4cn[nH]c4c3)nc2c1)c1ccc(Cl)c(Cl)c1` [8j, N-(2-(1H-Indazol-6-yl)-1H-benzo[d]imidazol-5-yl)-3,4-dichlorobenzamide], for which the melting point was in the range of 255 to 257 °C. For the same compound, at FLT3 wild type (read-out: FLT3 IC50), the concentration for half-maximal inhibition (IC50) was 514 nM. Further, half-maximal inhibition against FLT3 (D835Y) (IC50) required 103 nM.
